Data on eight compounds can be found in US5001158A, “Nitrosoureas compounds preparation thereof and utilization thereof in anticancerous” (Centre National de la Recherche Scientifique, priority 1990, dated 1991).

Like-named read-outs stand apart in the source and are kept apart here.

Data set [1] concerns Mammary adenocarcinoma TM2. Details: key: N.S.: Not significant; .infin.: 50% more of the treated animals are cure. To be noted: days 1, 5 and 9, cited from earlier work.
For data set [2], the system named is Fibrosarcoma I.C.I.G. C1. Details: key: N.S.: Not significant; .infin.: 50% more of the treated animals are cure. To be noted: days 1, 5 and 9, cited from earlier work.
Data set [3] relates to Lewis pulmonary carcinoma. Details: key: N.S.: Not significant; .infin.: 50% more of the treated animals are cure. The settings on record: days 1, 5 and 9, cited from earlier work.
For data set [4], the system named is Ovarian M 555. Details: key: N.S.: Not significant; .infin.: 50% more of the treated animals are cure. The settings on record: days 1, 5 and 9, cited from earlier work.
In data set [5] the test system is Carcinoma of the colon (colon 26). Details: key: N.S.: Not significant; .infin.: 50% more of the treated animals are cure. The settings on record: days 1, 5 and 9, cited from earlier work.
For data set [6], the system named is Leukemia L 1210. Details: key: N.S.: Not significant; .infin.: 50% more of the treated animals are cure. The settings on record: days 1, 5 and 9, cited from earlier work.
Data set [7] concerns Glioma 26. Details: key: N.S.: Not significant; .infin.: 50% more of the treated animals are cure. To be noted: days 1, 5 and 9, cited from earlier work.
Data set [8] has as its system Melanocarcinoma B 16. Details: key: N.S.: Not significant; .infin.: 50% more of the treated animals are cure. The settings on record: days 1, 5 and 9, cited from earlier work.
Data set [9] can be described thus: 50% lethal dose (LD50 acute) in mice. It counts as in vivo, mice (male B6 D2 F1 /OLA). To be noted: mouse, in vivo, ip, mortality before the 8th day. As for the experimental part: (§1) Male B6 D2 F1 /OLA mice are inoculated intraperitoneally with 10^5 cells of the leukemia strain L1210 on day 0 and divided into groups. The first is the control group and the others are treated with the drugs at different concentrations on days 1, 5 and 9. The compounds are injected as a suspension in olive oil. The mortality of the animals is observed and the autopsy indicates whether it is due to leukemia or to the toxic action of the products.
(§2) The 50% lethal dose (LD50 acute) is determined by taking into account the mortality which has occurred before the 8th day among the animals treated on day D:1. The survival median of the treated animals (mT) and the control animals (mC) was established and Wilcoxon's non-parametric statistical test was applied. The results are considered positive if the index I [formula] is greater than 125 and the test Is significant at p≤0.05.

Data set [10] relates to leukemia strain L1210. Kind of data set: Antitumoral activity on leukemia L1210 i.p. in mice, unoxidized compounds (ICIG). Format: in vivo, mice (male B6 D2 F1 /OLA). The settings on record: for survival rate after 60 days: at different doses; for I indices (in words): i.p., leukemia L1210. As for the experimental part: The oncostatic activity of these nitrosated derivatives was determined at the I.C.I.G. in VILLEJUIF (Department of Prof. MATHE) following a described experimental protocol: M. HAYAT et al , Cancer Chemother. Pharmacol., 1979, 3, 217-221; R. MARAL et al., Eur. J. Med. Chem., submitted for publication.
as §1, §2

Data set [11] deals with mice. Kind of data set: 50% lethal dose (LD50 acute) in mice. Format: in vivo, mice (male B6 D2 F1 /OLA). The settings on record: i.p. The method, then: as §1, §2

With `CC1(C)O[C@@H]2[C@@H](COC(=O)c3ccc([N+](=O)[O-])cc3)OC(NC(=O)N(CCCl)N=O)[C@@H]2O1` (stereo partly drawn) [R.F.C.N.U., 1-(2-chloroethyl)-3-[1'-(5'-pnitrobenzoyl 2', 3'-isopropylidene)alphabeta D-ribofuranosyl]-1-nitrosourea], the “Increase in the survival time (I.L.S.: T/C × 100)” value (“Increase in the survival time” below) in data set [1] (20 mg/kg i.p.) was “N.S”; in data set [2] (20 mg/kg i.p.), “.infin. (50% more of the treated animals are cure)”; in data set [3] (20 mg/kg i.p.) it was “N.S”; in [4] (20 mg/kg i.p.) it was “N.S”; in data set [5] (20 mg/kg i.p.) it was “N.S”; in data set [6] (20 mg/kg i.p.) it was 167. Further, the “Increase in the survival time” value in data set [7] (20 mg/kg i.p.) is “N.S”; in data set [8] (20 mg/kg i.p.), 144.
`O=NN(CCCl)C(=O)NCCS` [(1), N-[N-(2-Chloroethyl)-N-nitrosocarbamoyl]cysteamine] came in with an LD50 in [9] of 19 to 25 mg/kg. Further, the “% of animals surviving to 60 days” value amounted to 100% in data set [10] (5 mg/kg i.p., days 1,5,9); 100% in [10] (10 mg/kg i.p., days 1,5,9); 100% in data set [10] (12.5 mg/kg i.p., days 1,5,9); 100% in data set [10] (15 mg/kg i.p., day +1). Besides, the “index I (survival median treated vs control)” value (“index I” below) is given as “.infin. (50% or more of the animals survive to day +60)” in [10] (5 mg/kg i.p., days 1,5,9); “.infin. (50% or more of the animals survive to day +60)” in data set [10] (10 mg/kg i.p., days 1,5,9); “.infin. (50% or more of the animals survive to day +60)” in [10] (12.5 mg/kg i.p., days 1,5,9); “.infin. (50% or more of the animals survive to day +60)” in data set [10] (15 mg/kg i.p., day +1). In addition, in data set [10], the “survival rate after 60 days” value turned out to be 100%. Moreover, the “I indices (in words)” value in [10] is given as “at infinity”.
For the compound `CC(=O)O[C@@H]1[C@H](OC(C)=O)COC(NC(=O)N(CCCl)N=O)[C@@H]1OC(C)=O` (stereo partly drawn) [R.P.C.N.U., 1-(2-chloroethyl)-3-[(2'-3'-4° trioacetyl)alphabeta D-ribopyrannosyl]-1-nitrosourea], the “Increase in the survival time” value in [1] (15 mg/kg i.p.) is on record as 134; in [3] (15 mg/kg i.p.), “N.S”; in data set [4] (15 mg/kg i.p.), “.infin. (50% more of the treated animals are cure)”; in data set [5] (15 mg/kg i.p.) it was “N.S”; in data set [6] (15 mg/kg i.p.) it was “N.S”; in data set [7] (15 mg/kg i.p.), 127. In addition, in data set [8] (15 mg/kg i.p.), the “Increase in the survival time” value is recorded as 151.
As to `O=NN(CCCl)C(=O)NCCO` [H.E.C.N.U., 1-(2-hydroxyethyl)-3-(2-chloroethyl) 3-nitrosourea], the “Increase in the survival time” value in data set [1] (10 mg/kg i.p.) is recorded as 165; in [2] (10 mg/kg i.p.), “N.S”; in data set [3] (10 mg/kg i.p.), “.infin. (50% more of the treated animals are cure)”; in [4] (10 mg/kg i.p.), 210; in data set [5] (10 mg/kg i.p.) it was “.infin. (50% more of the treated animals are cure)”; in [6] (10 mg/kg i.p.), “.infin. (50% more of the treated animals are cure)”. Besides, the “Increase in the survival time” value is 182 in data set [7] (10 mg/kg i.p.) and 198 in [8] (10 mg/kg i.p.).
As to `O=NN(CCCl)C(=O)N[C@H]1C(O)O[C@H](CO)[C@@H](O)[C@@H]1O` (stereo partly drawn) [CHLOROZOTOCIN, chlorozotocin], the “Increase in the survival time” value in [1] (15 mg/kg i.p.) is “N.S”; in data set [2] (15 mg/kg i.p.), “.infin. (50% more of the treated animals are cure)”; in [3] (15 mg/kg i.p.), “N.S”; in data set [4] (15 mg/kg i.p.) it was “.infin. (50% more of the treated animals are cure)”; in data set [5] (15 mg/kg i.p.), “.infin. (50% more of the treated animals are cure)”; in data set [6] (15 mg/kg i.p.) it was “N.S”. The “Increase in the survival time” value in data set [7] (15 mg/kg i.p.) and in data set [8] (15 mg/kg i.p.) was “N.S” in each case.
`CSCCNC(=O)N(CCCl)N=O` [(3), S-methyl-N-[N-(2-chloroethyl)-N-nitrosocarbamoyl] cysteamine] showed an LD50 in data set [9] of 19 to 25 mg/kg. The “index I” value is “.infin. (50% or more of the animals survive to day +60)” in [10] (5 mg/kg i.p., days 1,5,9) and “.infin. (50% or more of the animals survive to day +60)” in data set [10] (12.5 mg/kg i.p., days 1,5,9). The “% of animals surviving to 60 days” value in data set [10] (12.5 mg/kg i.p., days 1,5,9) was 100%; in data set [10] (15 mg/kg i.p., days 1,5,9), 87%. In data set [10], the “survival rate after 60 days” value was 100%. Besides, the “I indices (in words)” value in [10] was “at infinity”.
`O=NN(CCCl)C(=O)NCCSC(c1ccccc1)(c1ccccc1)c1ccccc1` [(9), S-Trityl-N-[N-(2-chloroethyl)-N-nitrosocarbamoyl]cysteamine]: the LD50 in data set [9] was > 625 mg/kg. Also, in data set [11], the “toxicity (in words)” value was “not toxic”.
In [9], `CC(=O)SCCNC(=O)N(CCCl)N=O` [(5), S-acetyl-N-[N-(2-chloroethyl)-N-nitrosocarbamoyl] cysteamine] came in with an LD50 of 19 to 25 mg/kg. Also, the “% of animals surviving to 60 days” value in [10] (10 mg/kg i.p., days 1,5,9) is listed as 14%; in [10] (12.5 mg/kg i.p., days 1,5,9), 100%; in data set [10] (15 mg/kg i.p., days 1,5,9), 80%; in data set [10] (20 mg/kg i.p., days 1,5,9) it was 25%. In addition, the “index I” value in data set [10] (10 mg/kg i.p., days 1,5,9) is “.infin. (50% or more of the animals survive to day +60)”; in [10] (12.5 mg/kg i.p., days 1,5,9) it was “.infin. (50% or more of the animals survive to day +60)”. Moreover, the “survival rate after 60 days” value in data set [10] is on record as 100%. Besides, in data set [10], the “I indices (in words)” value was “at infinity”.

By LD50 is commonly meant the dose at which mortality reaches 50%.
